Columns and labels:
[1] = target: T1, Recombinant STAT3 protein (STAT3(G127-I722)) (Homo sapiens, UniProt P40763); assay: STAT3 Fluorescence Polarization (FP) Assay; type: binding; details: 25 nM STAT3(G127-I722), 2 nM 5-FAM-GpYLPQTV-NH2 probe, pH 7.4, 45-minute incubation at room temperature
T1 construct: Recombinant STAT3 protein (STAT3(G127-I722))
Method: An FP assay was developed to determine IC50 values for test substances. Recombinant STAT3 protein (STAT3(G127-I722)) at 25 nM was combined with a fluorescently labeled, phosphotyrosine peptide probe (5-FAM-GpYLPQTV-NH2) at 2 nM in FP buffer (10 mM HEPES pH 7.4, 50 mM NaCl. 1 mM EDTA, 0.05% Tween 20, 2 mM DTT). 50 μL of STAT3-probe mixture was added to serial diluted compounds in black, 96-well plates (Greiner BioOne 655076) to a final concentration of 1% DMSO. Reaction components were mixed, and FP was measured after 45-minute incubation at room temperature using a Tecan Spark multimode plate reader. FP signal (mP) was plotted against the log concentration of the test substances and IC50 values were calculated by nonlinear regression analysis using GraphPad Prism software. For STAT3 FP assay, A=≤100 nM; B=>100-1000 nM; C=>1-10 μM; and D=>10 μM.

[2] = target: T2, Recombinant STAT6 protein (STAT6(W123-T658)) (Homo sapiens, UniProt P42226); assay: STAT6 Fluorescence Polarization (FP) Assay; type: binding; details: 250 nM STAT6(W123-T658), 2 nM 5-FAM-Ap[…]-NH2 probe, pH 7.4, 45-minute incubation at room temperature
T2 construct: Recombinant STAT6 protein (STAT6(W123-T658))
T2 sequence (P42226 123-658): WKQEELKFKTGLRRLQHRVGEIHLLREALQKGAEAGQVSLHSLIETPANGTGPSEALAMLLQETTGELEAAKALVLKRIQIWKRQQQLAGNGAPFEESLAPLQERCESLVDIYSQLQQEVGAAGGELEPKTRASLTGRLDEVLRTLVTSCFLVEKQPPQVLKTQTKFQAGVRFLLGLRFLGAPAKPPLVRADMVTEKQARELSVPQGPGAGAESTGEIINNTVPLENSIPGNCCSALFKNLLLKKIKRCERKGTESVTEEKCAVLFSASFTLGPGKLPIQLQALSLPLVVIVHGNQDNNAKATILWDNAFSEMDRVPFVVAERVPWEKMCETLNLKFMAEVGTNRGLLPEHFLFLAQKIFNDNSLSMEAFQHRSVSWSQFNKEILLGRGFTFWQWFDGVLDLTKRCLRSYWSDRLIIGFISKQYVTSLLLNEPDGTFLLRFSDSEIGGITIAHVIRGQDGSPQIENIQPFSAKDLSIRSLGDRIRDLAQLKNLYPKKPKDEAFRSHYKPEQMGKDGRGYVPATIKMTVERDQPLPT
Method: An FP assay was developed to determine IC50 values for test substances. Recombinant STAT6 protein (STAT6(W123-T658)) at 250 nM was combined with a fluorescently labeled, phosphotyrosine peptide probe (5-FAM-Ap[…]-NH2) at 2 nM in FP buffer (10 mM HEPES pH 7.4, 50 mM NaCl, 1 mM EDTA, 0.05% Tween 20, 2 mM DTT). 50 μL of STAT6-probe mixture was added to serial diluted compounds in black, 96-well plates (Greiner BioOne 655076) to a final concentration of 1% DMSO. Reaction components were mixed, and FP w as measured after 45-minute incubation at room temperature using a Tecan Spark multimode plate reader. FP signal (mP) was plotted against the log concentration of the test substances and IC50 values were calculated by nonlinear regression analysis using GraphPad Prism software. For STAT6 FP assay. A=≤300 nM; B=>300-3000 nM; C=>3-30 μM; and D=>30 μM.

[3] = test system: pSTAT6 (pY641-STAT6) in PBMC; assay: MSD-pSTAT-PBMC Assay (pSTAT6); type: cell-based; details: compound 3 hrs, then 1 ng/mL IL-4 for 10 min
Description: Cryopreserved Peripheral Blood Mononuclear Cells (PBMC) are from AllCells. Recombinant Human […] and IL-6 are from Peprotech. Mouse monoclonal anti-STAT3 antibody, rabbit monoclonal anti-pY705-STAT3 antibody, rabbit monoclonal Anti-pY641-STAT6 antibody, and lysis buffer are from Cell Signaling Technology (CST). Mouse monoclonal anti-STAT6 antibody is from BioLegend. Assay plates, blocker, and anti-rabbit secondary antibody are from Meso Scale Discovery (MSD).
Cryopreserved PBMCs were thawed out and allowed to recover overnight in IMDM+10% heat-inactivated FBS prior to plating 50,000 (STAT3) or 25,000 (STAT6) cells per well in 96-well U-bottom tissue culture plates. Cells were treated with compound for 3 hrs, then stimulated with 10 ng/mL IL-6 (STAT3) or 1 ng/mL IL-4 (STAT6) for 10 min. Cells were then spun down and washed with ice-cold PBS prior to lysing the cell pellet with 1× lysis buffer (CST) with 1× HALT protease and phosphatase inhibitor cocktail (Thermo). Lysates were transferred to and incubated overnight at 4° C. with shaking in QuickPlex 96-well high bind assay plates (MSD) pre-coated overnight with 30 μL per well of 0.6 μg/mL mouse monoclonal anti-STAT3 antibody (STAT3) or 2 μg/mL mouse monoclonal anti-STAT6 antibody (STAT6) in 1×PBS, and pre-blocked for 1 hour with 3% Blocker-A (MSD). Captured protein in the assay plates were then washed and probed with 25 μL per well of 0.25 μg/ml rabbit monoclonal anti-pY705-STAT3 antibody (STAT3) or 0.18 μg/ml rabbit monoclonal Anti-pY641-STAT6 antibody (STAT6) in 1% Blocker-A for 1 hour at room temperature with shaking, then washed and probed with 25 ul per well of 1 ug/ml Sulfo-TAG Labeled Goat Anti-Rabbit Antibody (MSD) in 1% Blocker-A for 1 hour at room temperature with shaking. Assay plates were then washed and 150 μL of 1× Read Buffer-T (MSD) was added to each well prior to reading on an SQ120 MSD Plate Reader. Assay signal from each sample was subtracted by the signal from unstimulated control wells and normalized to DMSO control wells, IC50 values were calculated using Graph Pad Prism Dose-Response Nonlinear Regression with variable slope. For both pSTAT3 and pSTAT6 A=≤100 nM; B=>100-1000 nM; C=>1000-3000 nM; and D=>3 μM.

T1 sequence (P40763 127-722): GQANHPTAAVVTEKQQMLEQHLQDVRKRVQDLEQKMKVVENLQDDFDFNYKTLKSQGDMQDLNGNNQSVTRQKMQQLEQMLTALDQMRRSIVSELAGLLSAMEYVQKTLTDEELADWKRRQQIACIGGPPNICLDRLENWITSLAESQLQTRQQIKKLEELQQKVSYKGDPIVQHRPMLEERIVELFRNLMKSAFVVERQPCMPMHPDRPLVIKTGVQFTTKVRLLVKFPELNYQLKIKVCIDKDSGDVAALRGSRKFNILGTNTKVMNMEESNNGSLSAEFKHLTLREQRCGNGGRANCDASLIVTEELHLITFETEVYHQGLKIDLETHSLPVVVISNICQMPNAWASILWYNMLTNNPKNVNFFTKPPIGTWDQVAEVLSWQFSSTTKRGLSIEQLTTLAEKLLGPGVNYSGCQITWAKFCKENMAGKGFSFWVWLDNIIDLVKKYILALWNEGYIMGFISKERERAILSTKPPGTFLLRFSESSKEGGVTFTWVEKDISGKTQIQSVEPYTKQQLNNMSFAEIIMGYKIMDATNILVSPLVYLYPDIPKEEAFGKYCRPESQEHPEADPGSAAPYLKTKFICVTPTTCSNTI

| SMILES | IC50 [1] [nM] | IC50 [2] [nM] | IC50 [3] [nM] |
| --- | --- | --- | --- |
| O=C1CCC(n2c(=O)[nH]c3cc(N4CCC(n5ccc([C@@H]6CN(C(=O)[C@@H]7CC[C@@H]8C[C@H]9C[C@H]9C[C@H](NC(=O)c9cc%10cc(C(F)(F)P(=O)(O)O)ccc%10s9)C(=O)N87)C7(CC7)C6)cc5=O)CC4)ccc32)C(=O)N1 (stereo partly drawn) [Compound 19, ((2-(((3S,6S,7aS,8aR,9aR)-3-((6R)-6-(1-(1-(1-(2,6-dioxopiperidin-3-yl)-2-oxo-2,3-dihydro-1H-benzo[d]imidazol-5-yl)piperidin-4-yl)-2-oxo-1,2-dihydropyridin-4-yl)-4-azaspiro[2.4]heptane-4-carbonyl)-5-oxodecahydro-1H-cyclopropa[d]pyrrolo[1,2-a]azocin-6-yl)carbamoyl)benzo[b]thiophen-5-yl)difluoromethyl)phosphonic acid] | 100 to 1000 | 300 to 3000 | > 3000 |
| N#CC1CN(C(=O)C2CCC3CC4CC4CC(NC(=O)c4cc5cc(C(F)(F)P(=O)(O)O)ccc5s4)C(=O)N32)CC1c1cccc(OCCCCOc2ccc(C3CCC(=O)NC3=O)cc2)c1 [Compound 3, ((2-(((3S,6S,7aS,8aR,9aR)-3-((rel-3S,4R)-3-cyano-4-(3-(4-(4-(2,6-dioxopiperidin-3-yl)phenoxy)butoxy)phenyl)pyrrolidine-1-carbonyl)-5-oxodecahydro-1H-cyclopropa[d]pyrrolo[1,2-a]azocin-6-yl)carbamoyl)benzo[b]thiophen-5-yl)difluoromethyl)phosphonic acid] | 1000 to 10000 | 300 to 3000 | > 3000 |
| N#CC1CN(C(=O)C2CCC3CC4CC4CC(NC(=O)c4cc5cc(C(F)(F)P(=O)(O)O)ccc5s4)C(=O)N32)CC1c1cccc(OCCCCCC#Cc2cccc3c2CN(C2CCC(=O)NC2=O)C3=O)c1 [Compound 7, ((2-(((3S,6S,7aS,8aR,9aR)-3-((rel-3S,4R)-3-cyano-4-(3-((7-(2-(2,6-dioxopiperidin-3-yl)-1-oxoisoindolin-4-yl)hept-6-yn-1-yl)oxy)phenyl)pyrrolidine-1-carbonyl)-5-oxodecahydro-1H-cyclopropa[d]pyrrolo[1,2-a]azocin-6-yl)carbamoyl)benzo[b]thiophen-5-yl)difluoromethyl)phosphonic acid] | 100 to 1000 | 300 to 3000 | > 3000 |
| O=C1CCC(N2Cc3c(OCCOCCOCCn4ccc([C@@H]5CN(C(=O)[C@@H]6CC[C@@H]7C[C@H]8C[C@H]8C[C@H](NC(=O)c8cc9cc(C(F)(F)P(=O)(O)O)ccc9s8)C(=O)N76)C6(CC6)C5)cc4=O)cccc3C2=O)C(=O)N1 (stereo partly drawn) [Compound 17, ((2-(((3S,6S,7aS,8aR,9aR)-3-((6R)-6-(1-(2-(2-(2-((2-(2,6-dioxopiperidin-3-yl)-1-oxoisoindolin-4-yl)oxy)ethoxy)ethoxy)ethyl)-2-oxo-1,2-dihydropyridin-4-yl)-4-azaspiro[2.4]heptane-4-carbonyl)-5-oxodecahydro-1H-cyclopropa[d]pyrrolo[1,2-a]azocin-6-yl)carbamoyl)benzo[b]thiophen-5-yl)difluoromethyl)phosphonic acid] | 1000 to 10000 | 300 to 3000 | > 3000 |
| O=C1CCC(c2ccc(OCCCCCn3ccc([C@@H]4CN(C(=O)[C@@H]5CC[C@@H]6C[C@H]7C[C@H]7C[C@H](NC(=O)c7cc8cc(C(F)(F)P(=O)(O)O)ccc8s7)C(=O)N65)C5(CC5)C4)cc3=O)cc2)C(=O)N1 (stereo partly drawn) [Compound 10, ((2-(((3S,6S,7aS,8aR,9aR)-3-((6R)-6-(1-(5-(4-(2,6-dioxopiperidin-3-yl)phenoxy)pentyl)-2-oxo-1,2-dihydropyridin-4-yl)-4-azaspiro[2.4]heptane-4-carbonyl)-5-oxodecahydro-1H-cyclopropa[d]pyrrolo[1,2-a]azocin-6-yl)carbamoyl)benzo[b]thiophen-5-yl)difluoromethyl)phosphonic acid] | 100 to 1000 | < 300 | 1000 to 3000 |

More lines, main results first:

| IC50 [1] [nM] | IC50 [2] [nM] | SMILES | IC50 [3] [nM] |
| --- | --- | --- | --- |
| 100 to 1000 | < 300 | N#CC1CN(C(=O)C2CCC3CC4CC4CC(NC(=O)c4cc5cc(C(F)(F)P(=O)(O)O)ccc5s4)C(=O)N32)CC1c1cccc(N2CCN(c3ccc4c(c3)[nH]c(=O)n4C3CCC(=O)NC3=O)CC2)c1 [Compound 13, ((2-(((3S,6S,7aS,8aR,9aR)-3-((rel-3S,4R)-3-cyano-4-(3-(4-(1-(2,6-dioxopiperidin-3-yl)-2-oxo-2,3-dihydro-1H-benzo[d]imidazol-5-yl)piperazin-1-yl)phenyl)pyrrolidine-1-carbonyl)-5-oxodecahydro-1H-cyclopropa[d]pyrrolo[1,2-a]azocin-6-yl)carbamoyl)benzo[b]thiophen-5-yl)difluoromethyl)phosphonic acid] | 100 to 1000 |
| 100 to 1000 | 300 to 3000 | O=C1CCC(N2Cc3c(C#CCCCCCCn4ccc([C@@H]5CN(C(=O)[C@@H]6CC[C@@H]7C[C@H]8C[C@H]8C[C@H](NC(=O)c8cc9cc(C(F)(F)P(=O)(O)O)ccc9s8)C(=O)N76)C6(CC6)C5)cc4=O)cccc3C2=O)C(=O)N1 (stereo partly drawn) [Compound 5, ((2-(((3S,6S,7aS,8aR,9aR)-3-((6R)-6-(1-(8-(2-(2,6-dioxopiperidin-3-yl)-1-oxoisoindolin-4-yl)oct-7-yn-1-yl)-2-oxo-1,2-dihydropyridin-4-yl)-4-azaspiro[2.4]heptane-4-carbonyl)-5-oxodecahydro-1H-cyclopropa[d]pyrrolo[1,2-a]azocin-6-yl)carbamoyl)benzo[b]thiophen-5-yl)difluoromethyl)phosphonic acid] | 100 to 1000 |
| 100 to 1000 | < 300 | N#CC1CN(C(=O)C2CCC3CC4CC4CC(NC(=O)c4cc5cc(C(F)(F)P(=O)(O)O)ccc5s4)C(=O)N32)CC1c1cccc(OCCOCCOc2cccc3c2CN(C2CCC(=O)NC2=O)C3=O)c1 [Compound 15, ((2-(((3S,6S,7aS,8aR,9aR)-3-((rel-3S,4R)-3-cyano-4-(3-(2-(2-((2-(2,6-dioxopiperidin-3-yl)-1-oxoisoindolin-4-yl)oxy)ethoxy)ethoxy)phenyl)pyrrolidine-1-carbonyl)-5-oxodecahydro-1H-cyclopropa[d]pyrrolo[1,2-a]azocin-6-yl)carbamoyl)benzo[b]thiophen-5-yl)difluoromethyl)phosphonic acid] | > 3000 |

Reference: US20260308185A1, “STAT DEGRADERS AND USES THEREOF” (Recludix Pharma, Inc., priority 2023, published 2026)
